The text below walks through data of patent US10548861B2 (Academia Sinica, priority 2015, dated 2020).

Molecules are shown by their SMILES. Read-outs that look alike come from different tables or passages of the source. Some results are limits rather than exact numbers.

The subject of one data set is BCI-NSI hTERT. Nature of the data set: 72 hr cytotoxicity: Bronchial epithelium. The format is cell-based. The conditions noted are these: Homo sapiens, 72 h.
In another data set the test system is FTE-hTERT. Nature of the data set: 72 hr cytotoxicity: Fallopian epithelium. The note with it: Homo sapiens, 72 h. The format is cell-based.
The subject of another data set is BMMSC. The data set is described as follows: 72 hr cytotoxicity: BM Mesenchyme. The format is cell-based. The note with it: Homo sapiens, 72 h.
The subject of another data set is H211. Nature of the data set: 72 hr cytotoxicity: SCLC variant. The format is cell-based. The note with it: Homo sapiens, NCI-H211.
The test system of another data set is H524. The data set is described as follows: 72 hr cytotoxicity: SCLC variant. The conditions noted are these: Homo sapiens, NCI-H524. The format is cell-based.
A further data set relates to H128. Nature of the data set: 72 hr cytotoxicity: SCLC classic. The format is cell-based. The note with it: Homo sapiens, NCI-H128.
The next data set concerns H187. The data set is described as follows: 72 hr cytotoxicity: SCLC classic. The format is cell-based. The conditions noted are these: Homo sapiens, NCI-H187.
The subject of another data set is H209. The data set is described as follows: 72 hr cytotoxicity: SCLC classic. The format is cell-based. The conditions noted are these: Homo sapiens, NCI-H209.
For the next data set, the system named is H249. Nature of the data set: 72 hr cytotoxicity: SCLC classic. The format is cell-based. The conditions noted are these: Homo sapiens.
For the next data set, the system named is H417. Nature of the data set: 72 hr cytotoxicity: SCLC variant. The format is cell-based. The note with it: Homo sapiens, NCI-H417.
The next data set concerns H526. Nature of the data set: 72 hr cytotoxicity: SCLC variant. The conditions noted are these: Homo sapiens, NCI-H526. The format is cell-based.
The next data set deals with H562. The data set is described as follows: 72 hr cytotoxicity: SCLC classic. The note with it: Homo sapiens. The format is cell-based.
A further data set concerns H60. Nature of the data set: 72 hr cytotoxicity: SCLC classic. The format is cell-based. The conditions noted are these: Homo sapiens.
The subject of the next data set is H69. The data set is described as follows: 72 hr cytotoxicity: SCLC classic. The format is cell-based. The note with it: Homo sapiens, NCI-H69.
Another data set deals with H678. Nature of the data set: 72 hr cytotoxicity: SCLC classic. The format is cell-based. The conditions noted are these: Homo sapiens.
In another data set the test system is H719. The data set is described as follows: 72 hr cytotoxicity: SCLC classic. The format is cell-based. The note with it: Homo sapiens.
In another data set the test system is H841. The data set is described as follows: 72 hr cytotoxicity: SCLC variant. The format is cell-based. The note with it: Homo sapiens, NCI-H841.
The next data set concerns H889. Nature of the data set: 72 hr cytotoxicity: SCLC classic. The note with it: Homo sapiens, NCI-H889. The format is cell-based.
The subject of data set [1] is Ewing's sarcoma cell lines. Nature of the data set: Cytotoxicity on sarcoma panel. The format is cell-based. The conditions noted are these: Homo sapiens, read-out: IC50 range.
Data set [2] has as its system Rhabdomyosarcoma cell lines. The data set is described as follows: Cytotoxicity on sarcoma panel. The conditions noted are these: Homo sapiens, read-out: IC50 range. The format is cell-based.
The subject of the next data set is Osteosarcoma cell lines. Nature of the data set: Cytotoxicity on sarcoma panel. The format is cell-based. The conditions noted are these: Homo sapiens, osteosarcoma lines highly resistant to BO-1055 (BO-1055 3 of 5; doxorubicin two lines); read-out: IC50 range.
Another data set has as its system Z-138. The data set is described as follows: Drug combination cytotoxicity with BO-1055. The format is cell-based, human.
A further data set deals with Granta. Nature of the data set: Drug combination cytotoxicity with BO-1055. The format is cell-based, human.
Data set [3] concerns REC-1. Nature of the data set: Drug combination cytotoxicity with BO-1055. The format is cell-based, human.
For data set [4], the system named is Mino. Nature of the data set: Drug combination cytotoxicity with BO-1055. The format is cell-based, human.
In another data set the test system is NECB1. Nature of the data set: Drug combination cytotoxicity with BO-1055. The format is cell-based, human.
In another data set the test system is JEKO-1. The data set is described as follows: Drug combination cytotoxicity with BO-1055. The conditions noted are these: Homo sapiens, JeKo-1, 72 h, read-out: IC50 single drug. The format is cell-based.
The test system of data set [5] is HBL2. Nature of the data set: Drug combination cytotoxicity with BO-1055. The format is cell-based. The conditions noted are these: Homo sapiens, HBL2, 72 h, read-out: IC50 single drug.
The test system of data set [6] is normal cord blood CD34+ cells. Nature of the data set: Cytotoxicity on normal cord blood CD34+ cells. The format is cell-based. The conditions noted are these: Homo sapiens, 72 h.
A further data set relates to A673. The data set is described as follows: Cytotoxicity: Ewing's sarcoma. The conditions noted are these: Homo sapiens, A673, read-out: cytotoxic activity (IC50).
For a further data set, the system named is Saos-1. The data set is described as follows: Cytotoxicity: Osteosarcoma. The note with it: Homo sapiens, read-out: cytotoxic activity (IC50).
A further data set has as its system U2OS. Nature of the data set: Cytotoxicity: Osteosarcoma. The note with it: Homo sapiens, read-out: cytotoxic activity (IC50).
A further data set has as its system TC-32. Nature of the data set: Cytotoxicity: Ewing's sarcoma. The note with it: Homo sapiens, TC-32, read-out: cytotoxic activity (IC50).
The subject of data set [7] is HBL2. The data set is described as follows: Cytotoxicity: Mantle Cell Lymphoma. The conditions noted are these: Homo sapiens.
The subject of data set [8] is REC-1. Nature of the data set: Cytotoxicity: Mantle Cell Lymphoma. The note with it: Homo sapiens.
In data set [9] the test system is spontaneous murine B-cell lymphoma. Nature of the data set: Cytotoxicity: lymphoma cells with no stromal support. The note with it: read-out: cytotoxicity IC50, Murine BCL, spontaneous CD19+.
Another data set concerns Granta-519. The note with it: TK, AEW, SOR, TOPO, publically accessible data (Broad, Sanger), read-out: cytotoxicity IC50; cited from earlier work.
Data set [10] deals with Mino. The note with it: TK, AEW, SOR, TOPO, publically accessible data (Broad, Sanger), read-out: cytotoxicity IC50; cited from earlier work.
In the next data set the test system is Ly10. The conditions noted are these: TK, AEW, SOR, TOPO, publically accessible data (Broad, Sanger), read-out: cytotoxicity IC50; cited from earlier work.
Setting [11] is: Homo sapiens, 72 h, read-out: IC50 single drug.

One may read the IC50 as the concentration at which inhibition is half-maximal. In the case of `COc1cccc2c1C(=O)c1c(O)c3c(c(O)c1C2=O)C[C@@](O)(C(=O)CO)C[C@@H]3O[C@H]1C[C@H](N)[C@H](O)[C@H](C)O1` [Doxorubicin], the IC50 is 500 nM in the data set with BCI-NSI hTERT; 6250 nM in the data set with FTE-hTERT; 450 nM in the data set on BMMSC; 150 nM in the data set with H211; 20 nM in the data set with H524; 100 nM in the data set with H128. Further, the IC50 worked out at 30 nM in the data set with H187; 30 nM in the data set on H209; 130 nM in the data set with H249; 10 nM with H417; 10 nM in the data set with H526; 170 nM in the data set with H562. For the same compound, the IC50 was 130 nM in the data set with H60; 60 nM in the data set on H69; 10 nM with H678; 90 nM in the data set with H719; 20 nM with H841; 20 nM in the data set on H889. Besides, the IC50 in [1] is 5 to 380 nM; in [2], 11 nM; with Osteosarcoma cell lines, 25 to 90 nM; in the data set with Z-138 (Homo sapiens, Z-138, 72 h, read-out: IC50 single drug), 438 nM; in the data set with Granta (setting [11]), 257 nM; in the data set with REC-1 [3] (Homo sapiens, Rec1, 72 h, read-out: IC50 single drug), above 10000 nM. Moreover, the half-maximal inhibitory concentration (IC50) with Mino [4] (Homo sapiens, MINO, 72 h, read-out: IC50 single drug) was 135 nM; in the data set on NECB1 (setting [11]), 1230 nM; with JEKO-1, 98 nM; in the data set with HBL2 [5], 51 nM; in data set [6], 200 nM; in the data set with A673, 380 nM. The IC50 with Saos-1 was 25 nM; in the data set with U2OS, 90 nM; in the data set on TC-32, 5 nM; with HBL2 [7] (HBL2) it was 28 nM; with HBL2 [7] (HBL2, read-out: cytotoxicity IC50), 30 nM; with REC-1 [8] (Rec1) it was 51 nM. The IC50 in the data set with REC-1 [8] (Rec1, read-out: cytotoxicity IC50) amounted to 50 nM; in data set [9], 124 nM. In addition, the “interaction with BO-1055 (combo-1, combo-2)” value in the data set with Z-138 is “both combinations were synergistic”; in the data set on Granta, “synergistic with combo-1 and antagonistic against combo-2”; in the data set on REC-1 [3], “both combinations were antagonistic”; in the data set with Mino [4] it was “both combinations were synergistic”; with NECB1 it was “synergistic with combo-1 and antagonistic against combo-2”.
Regarding `CNC(=O)c1cc(Oc2ccc(NC(=O)Nc3ccc(Cl)c(C(F)(F)F)c3)cc2)ccn1` [SOR], the IC50 with Granta-519, with Mino [10] and in the data set with Ly10 was 28000 nM in each case.
